This note sets out measurements from patent publication US20200155526A1, “TARGETING LYSINE DEMETHYLASES (KDMS) AS A THERAPEUTIC STRATEGY FOR DIFFUSE LARGE B-CELL LYMPHOMA” (THE CHILDREN'S MEDICAL CENTER CORPORATION, priority 2017, published 2020).

A word on the EC50: it is the midpoint of the concentration-response curve.

Some results are limits rather than exact numbers.

Test [1] concerns OCI-Ly1. As to the kind of experiment: OCI-Ly1 sensitivity assay (CTG viability). Type of test: cell-based, human. The note with it: for OCI-Ly1 cell viability, Jumonji-inhibitors: OCI-Ly1, range tested, FIG. 5. The method, then:
(§1) For the Cell Titer Glo assays (CTG), between 3000-10,000 cells were plated in a 96 well plate (in triplicates). The cells were allowed to settle for 24 hours before either small molecule(s) or DMSO was added at indicated concentrations. The treatment was performed for indicated days (preferably 2 days for a “snap-shot” experiments). CTG signal was used to assess viability after 2 days according to manufacturer's protocol (Promega Corporation; Madison, Wis.).
When performing the comparative test of GSK126 and JIB04, daily readings were taken using the manufacturer's protocol for CTG signal after day 2 (for JIB04), and after day 5 (for GSK126).
For OCI-Ly1 sensitivity assay, OCI-Ly1 cells were grown at a density of 1-3×10^6 cells/mL and 3000-10,000 cells were plated in a 96-well plate (in triplicates). The cells were allowed to settle for 24 hours before either the indicated small molecule(s) or DMSO was added at indicated concentrations. CTG signal was used to assess viability after 2 days according to manufacturer's protocol (Promega Corporation; Madison, Wis.). Small molecules used in each experiment are stated in the respective figures along with their concentrations. Results are shown in FIGS. 10, 11, 13, 14, 15, 16 and 22.

The subject of test [2] is DLBCL cell lines. As to the kind of experiment: Sensitivity of DLBCL cell lines (CTG viability). Type of test: cell-based. The method, then: For the Cell Titer Glo assays (CTG), between 3000-10,000 cells were plated in a 96 well plate (in triplicates). The cells were allowed to settle for 24 hours before either small molecule(s) or DMSO was added at indicated concentrations. The treatment was performed for indicated days (preferably 2 days for a “snap-shot” experiments). CTG signal was used to assess viability after 2 days according to manufacturer's protocol (Promega Corporation; Madison, Wis.). For OCI-Ly1 sensitivity assay, OCI-Ly1 cells were grown at a density of 1-3×10^6 cells/mL and 3000-10,000 cells were plated in a 96-well plate (in triplicates). The cells were allowed to settle for 24 hours before either the indicated small molecule(s) or DMSO was added at indicated concentrations. CTG signal was used to assess viability after 2 days according to manufacturer's protocol (Promega Corporation; Madison, Wis.). Small molecules used in each experiment are stated in the respective figures along with their concentrations. Results are shown in FIGS. 10, 11, 13, 14, 15, 16 and 22.

In test [3] the test system is DB. As to the kind of experiment: Cell Titer Glo (CTG) viability, JIB04 dose response. Format: cell-based. The note with it: Homo sapiens, 48 h; DB (DLBCL), 2 days treatment, FIG. 2. The protocol:
as §1
(In general: ATP-based viability assays read luminescence as a measure of living cells.)

Test [4] concerns Farage. The test is described as above. Format: cell-based. The following applies: 48 h; Farage (DLBCL), 2 days treatment, FIG. 2. The method, then:
as §1

For test [5], the system named is HL-60. The description is as above. The following applies: Homo sapiens, 48 h; HL-60 (leukemia), 2 days treatment, FIG. 2; read-out: effective EC50. Format: cell-based. The protocol:
as §1

Test [6] deals with Jurkat. The description is as above. The note with it: Homo sapiens, 48 h; Jurkat (leukemia), 2 days treatment, FIG. 2; read-out: effective EC50. Type of test: cell-based. The method, then:
as §1

Test [7] has as its system MV4-11. The description is as above. Type of test: cell-based. The following applies: Homo sapiens, 48 h; MV4-11 (leukemia), 2 days treatment, FIG. 2; read-out: effective EC50. The protocol:
as §1

The test system of test [8] is SUDHL5. Described as above. The note with it: Homo sapiens, SU-DHL-5, 48 h; SUDHL5 (DLBCL), 2 days treatment, FIG. 2. Type of test: cell-based. The method, then:
as §1

Test [9] deals with THP-1. The test is described as above. The following applies: Homo sapiens, 48 h; THP-1 (leukemia), 2 days treatment, FIG. 2; read-out: effective EC50. Format: cell-based. The protocol: as §1
Test [10] concerns Toledo. Described as above. Format: cell-based. The note with it: Homo sapiens, 48 h; Toledo (DLBCL), 2 days treatment, FIG. 2. The protocol:
as §1

The subject of test [11] is lymphoma cell lines. Briefly: Annexin V staining apoptosis assay. The following applies: FIG. 4A. Type of test: cell-based. The method, then:
APC-Annexin V was obtained from BD Pharmingen (Franklin Lakes, N.J.), and Annexin V staining was performed as described by the manufacturer.

For test [12], the system named is PARP. Briefly: Production of cleaved PARP. Format: cell-based. The following applies: FIG. 4B.
Test [13] has as its system OCI-Ly1 cell lines. Briefly: Transcriptomics (RNA-seq, GSEA) of JIB04-treated cells. Type of test: cell-based, human. The method, then:
(§2) Three independent cultures of OCI-Ly1 cell lines were grown till the cultures achieved the cell numbers of approximately 1-1.5*10^6 cells/ml, and then cells were treated with either DMSO or two different JIB04 concentrations (150 nM and 500 nM). RNA was isolated using Trizol method, followed by library preparation using NEBUltraII kit (New England Biolabs; Ipswich, Mass.). After high throughput sequencing of the libraries, FastQc was used for filtering and quality control of the reads followed by read alignment to hg19 assembly of the human genome. Reads were counted by TopHat, differential gene expression analysis was performed in Rstudio. GSEA was performed using the desktop client from the Broad Institute, and the GSEA output was visualized using Rstudio.

Test [14] in a line: Cell cycle analysis by propidium iodide staining. Format: cell-based, human. The note with it: different dosage and times, FIG. 7C. From the text:
Propidium Iodide Flow Cytometry Kit from Abcam was used to perform cell cycle analysis using propidium iodide staining according to manufacturer's protocol.

The subject of test [15] is Ikaros family members (IKZF1, IKZF3). Briefly: Immunoblotting of Ikaros family members and BCR signaling components. Format: cell-based. The note with it: JIB04 100 nM or 500 nM, FIG. 20. The method, then:
Effect of JIB-04 on Ikaros family members and proximal components of BCR signaling pathway was assayed as follows: One million cells growing under indicated conditions (DMSO or JIB04 treatment; 100 nM or 500 nM) were pelleted by centrifugation at 1000 rpm for 5 min, and then resuspended in RIPA buffer with protease and phosphatase inhibitors. The cell suspension was left on ice for 20 min, and then sonicated using Diagenode water-bath sonicator (15 s. on; 30 s. off, for 15 cycles at max power). After sonication, cell extract was spun at 12000 rpm for 20 min, and the supernatant was collected for immunoblotting. Immunoblotting was performed using standard methods, and the blots were probed using antibodies recognizing indicated proteins.
On the technique in general: In western blotting, separated proteins are transferred to a membrane and probed.

Test [16] relates to canonical Wnt signaling. As to the kind of experiment: Transcriptomics / ChIP-seq GSEA of Wnt signaling. Format: cell-based. The note with it: FIGS. 21A-21C. The method, then: as §2
Cells were fixed with 1% formaldehyde for 10 minutes at room temperature before termination with 0.125 M glycine. Cells were then lysed in ChIP buffer (0.6% SDS, 10 mM EDTA, and 50 mM Tris-HCl, pH 8.1) and cross-linked chromatin was sonicated to obtain DNA fragments of 300-800 bp. […] Libraries were quantified by Qubit (Invitrogen), and sequenced using a HiSeq 2000 (Illumina) to generate 50 bp single end reads.

In test [17] the test system is Ly1 cells. Briefly: In vivo Ly1 luciferase model, bioluminescence imaging. The following applies: NSG mice, 30 mg/kg, 3 times weekly, intra-peritoneal, 2 weeks post treatment, FIGS. 18A-18B. The method, then:
For in vivo studies, Ly1 cells, with a luciferase reporter or […], were administered to Nod/SCID− mice (NSG) (6-8 weeks) were used for tail vein injection. Mice administered the Ly1 cells comprising the luciferase reporter were imaged every week after injection using the IVIS Spectrum In Vivo Imaging System (Perkin Elmer). […] JIB04 was administered three times a week, for two weeks, via intra-peritoneal injection in a mix of 90% sesame oil and 10% DMSO mix (vehicle). Mice were imaged each week and images from pre-treatment and 2-weeks after start of treatment with 30 mg/kg (3× a week) JIB04 are shown in FIG. 18A (pre-treatment) and FIG. 18B (post-treatment).

Test [18] relates to Ly1 cells. As to the kind of experiment: In vivo Ly1 model, Kaplan Meier survival. The note with it: mice, compared to vehicle treated mice, FIG. 19. From the text:
Mice administered Ly1 cells without the luciferase reporter were monitored post administration, and fraction surviving was plotted (FIG. 19) using the Kaplan Meier Survival Analysis of Graphpad Prism.

Setting [19] is: JIB04 150 nM and 500 nM, FIG. 7A.

With `CN(C)CCCNC(=O)c1ccc(-c2cc(O)c3ncccc3c2)cc1` [ML324], the “OCI-Ly1 cell viability, Jumonji-inhibitors” value in test [1] was “only JIB04 decreased OCI-Ly1 cell viability significantly”.

`CCOC(=O)c1ccnc(CNCC(=O)N(CC)CCN(C)C)c1` [KDM5-C70]: in [1], the “OCI-Ly1 cell viability, Jumonji-inhibitors” value is reported as “only JIB04 decreased OCI-Ly1 cell viability significantly”.

For the compound `CC(C)c1c(-c2ccccc2)[nH]c2c(C#N)cnn2c1=O` [CPI-455], the “OCI-Ly1 cell viability, Jumonji-inhibitors” value in [1] was “only JIB04 decreased OCI-Ly1 cell viability significantly”.

`Cc1cc(/C=C/c2ccc3cc(N(C)C)ccc3[n+]2C)c(C)n1-c1ccccc1` [Pyrvinium]: in test [2] (FIG. 22), the “sensitivity of DLBCL cell lines” value is given as “sensitive to Pyrvinium”.

`CCOC(=O)CCNc1cc(N2CCc3ccccc3CC2)nc(-c2ccccn2)n1` [GSK-J4]: the “OCI-Ly1 cell viability, Jumonji-inhibitors” value in test [1] is on record as “only JIB04 decreased OCI-Ly1 cell viability significantly”.

In the case of `O=[N+]([O-])c1cc([N+](=O)[O-])c(/C=C/c2ccc(Cl)c(Cl)c2)cc1/C=C/c1ccc(Cl)c(Cl)c1` [NSC636819], the “OCI-Ly1 cell viability, Jumonji-inhibitors” value in test [1] was “only JIB04 decreased OCI-Ly1 cell viability significantly”.

For the compound `Clc1ccc(N/N=C(\c2ccccc2)c2ccccn2)nc1` [JIB04, 5-Chloro-2-[(E)-2-[phenyl(pyridin-2-yl)methylidene]hydrazin-1-yl]pyridine], the EC50 in [3] was below 250 nM; in test [4] it was below 250 nM; in [5], around 1000 nM; in test [6], around 1000 nM; in test [7], around 1000 nM; in test [8], below 250 nM. Besides, the EC50 in test [9] is around 1000 nM; in [10] it was below 250 nM; in [1] (Homo sapiens, 48 h, OCI-Ly1 (DLBCL), 2 days treatment, FIG. 2), below 250 nM. For the same compound, the “OCI-Ly1 cell viability, Jumonji-inhibitors” value in test [1] was “decreased OCI-Ly1 cell viability significantly”. The “JIB04 potency (CTG signal relative to DMSO) when combined with Ibrutinib” value in test [1] (combined with Ibrutinib, compared to JIB04 alone, FIG. 16) was “increased”. For the same compound, the “reduction of CTG signal, E isomer versus Z isomer” value in [1] (trans configuration (E isomer) relative to cis configuration (Z isomer), FIG. 13) is on record as “more is effective at reducing CTG signal relative to the cis configuration (Z isomer)”. The “sensitivity of GCB and ABC type DLBCL lines” value in test [2] (GCB and ABC type DLBCL) is recorded as “both of those lines are sensitive to JIB04”. Also, the annexin-V positive cells entry in test [11] is given as “increase in annexin-V positive cells in a dose-dependent manner”. Further, the “production of cleaved PARP” value in test [12] is on record as “increased production of cleaved PARP”. In [13] (FIGS. 7B and 7C), the CDKN1A expression result is given as “significantly upregulated”. Besides, the “downregulated pathways (GSEA)” value in test [13] (setting [19]) was “downregulation of “E2F targets” and “Myc-targets””. Further, the “upregulated pathways (GSEA)” value in test [13] (setting [19]) was “upregulation of “apoptosis” and “p53”-pathways”. In test [14], the cell cycle entry is “cell cycle arrest”. Also, the “levels of Ikaros family members” value in test [15] is “downregulates levels of members of Ikaros family, such as IKZF1 and IKZF3”. Besides, the “canonical Wnt signaling” value in [16] is given as “inhibits canonical Wnt signaling”. For the same compound, the tumor burden entry in test [17] is on record as “reduction in tumor burden within a short window of treatment”. Further, the survival entry in [18] is “increased survival as compared to vehicle treated mice”.
